pKi: −log10 of the molar value.
Molecular target: T1, PI3Kδ (Homo sapiens, UniProt O00329)
T1 construct: Full length p110 subunits of PI3k α, β and δ, N-terminally labeled with polyHis tag; polyHis (N); made in house; host or cells: Sf9 insect cells (baculovirus)
Assay: PI3Kδ Alphascreen assay
Format: biochemical
Method: Full length p110 subunits of PI3k α, β and δ, N-terminally labeled with polyHis tag, were coexpressed with p85 with Baculo virus expression vectors in sf9 insect cells. P110/p85 heterodimers were purified by sequential Ni-NTA, Q-HP, Superdex-100 chromatography. Purified α, β and δ isozymes were stored at −20° C. in 20 mM Tris, pH 8, 0.2M NaCl, 50% glycerol, 5 mM DTT, 2 mM Na cholate. […] The γ isozyme was purified by sequential Ni-NTA, Superdex-200, Q-HP chromatography. The γ isozyme was stored frozen at −80° C. in NaH2PO4, pH 8, 0.2M NaCl, 1% ethylene glycol, 2 mM β-mercaptoethanol.
A PI3K Alphascreen® assay (PerkinElmer, Waltham, Mass.) was used to measure the activity of a panel of four phosphoinositide 3-kinases: PI3Kα, PI3Kβ, PI3Kγ, and PI3Kδ. Enzyme reaction buffer was prepared using sterile water (Baxter, Deerfield, Ill.) and 50 mM Tris HCl pH 7, 14 mM MgCl2, 2 mM sodium cholate, and 100 mM NaCl. 2 mM DTT was added fresh the day of the experiment. The Alphascreen buffer was made using sterile water and 10 mM Tris HCl pH 7.5, 150 mM NaCl, 0.10% Tween 20, and 30 mM EDTA. 1 mM DTT was added fresh the day of the experiment. Compound source plates used for this assay were 384-well Greiner clear polypropylene plates containing test compounds at 5 mM and diluted 1:2 over 22 concentrations. Columns 23 and 24 contained only DMSO as these wells comprised the positive and negative controls, respectively. Source plates were replicated by transferring 0.5 uL per well into 384-well Optiplates (PerkinElmer, Waltham, Mass.).
Each PI3K isoform was diluted in enzyme reaction buffer to 2× working stocks. […] PI(4,5)P2 (Echelon Biosciences, Salt Lake City, Utah) was diluted to 10 μM and ATP was diluted to 20 μM. This 2× stock was used in the assays for PI3Kα and PI3Kβ. For assay of PI3Kγ and PI3Kδ, PI(4,5)P2 was diluted to 10 μM and ATP was diluted to 8 μM to prepare a similar 2× working stock. Alphascreen reaction solutions were made using beads from the anti-GST Alphascreen kit (PerkinElmer, Waltham, Mass.). Two 4× working stocks of the Alphascreen reagents were made in Alphascreen reaction buffer. In one stock, biotinylated-IP4 (Echelon Biosciences, Salt Lake City, Utah) was diluted to 40 nM and streptavidin-donor beads were diluted to 80 μg/mL. In the second stock, PIP3-binding protein (Echelon Biosciences, Salt Lake City, Utah) was diluted to 40 nM and anti-GST-acceptor beads were diluted to 80 μg/mL.
10 μL/well of the appropriate substrate 2× stock (containing 20 μM ATP for the PI3Kα and β assays and containing 8 μM ATP for the PI3Kγ and δ assays) was then added to Columns 1-24 of all plates. Plates were then incubated at room temperature for 20 minutes. In the dark, 10 μL/well of the donor bead solution was added to columns 1-24 of the plates to quench the enzyme reaction. The plates were incubated at room temperature for 30 minutes. Still in the dark, 10 μL/well of the acceptor bead solution was added to columns 1-24 of the plates. The plates were then incubated in the dark for 1.5 hours. The plates were read on an Envision multimode Plate Reader (PerkinElmer, Waltham, Mass.) using a 680 nm excitation filter and a 520-620 nm emission filter.

T1 sequence (O00329 whole entry): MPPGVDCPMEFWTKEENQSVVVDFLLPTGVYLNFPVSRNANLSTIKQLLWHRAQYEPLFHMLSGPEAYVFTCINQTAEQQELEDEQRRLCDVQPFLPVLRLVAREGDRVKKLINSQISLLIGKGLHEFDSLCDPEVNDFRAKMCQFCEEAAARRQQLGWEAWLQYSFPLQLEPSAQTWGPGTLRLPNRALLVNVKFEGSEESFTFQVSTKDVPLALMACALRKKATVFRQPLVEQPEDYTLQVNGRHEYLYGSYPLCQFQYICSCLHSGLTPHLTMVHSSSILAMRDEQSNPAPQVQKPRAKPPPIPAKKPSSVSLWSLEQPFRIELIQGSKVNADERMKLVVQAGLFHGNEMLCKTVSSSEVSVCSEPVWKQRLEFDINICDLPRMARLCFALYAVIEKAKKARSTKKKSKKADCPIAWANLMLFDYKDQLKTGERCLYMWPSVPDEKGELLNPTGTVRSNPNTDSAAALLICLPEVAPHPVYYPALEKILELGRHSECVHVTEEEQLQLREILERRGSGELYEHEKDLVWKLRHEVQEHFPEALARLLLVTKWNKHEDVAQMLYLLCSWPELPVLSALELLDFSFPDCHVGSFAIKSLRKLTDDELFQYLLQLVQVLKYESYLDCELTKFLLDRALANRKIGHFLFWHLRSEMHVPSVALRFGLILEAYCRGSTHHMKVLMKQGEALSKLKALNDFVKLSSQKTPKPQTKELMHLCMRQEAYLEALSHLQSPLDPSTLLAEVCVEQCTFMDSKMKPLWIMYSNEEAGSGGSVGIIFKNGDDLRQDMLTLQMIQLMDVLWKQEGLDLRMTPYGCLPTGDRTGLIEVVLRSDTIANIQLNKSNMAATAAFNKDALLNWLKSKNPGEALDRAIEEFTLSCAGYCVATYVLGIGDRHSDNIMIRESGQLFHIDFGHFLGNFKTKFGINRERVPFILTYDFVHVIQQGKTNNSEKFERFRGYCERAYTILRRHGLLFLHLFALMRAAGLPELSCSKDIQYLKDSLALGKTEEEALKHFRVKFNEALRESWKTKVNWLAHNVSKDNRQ
T1 sequence (P27986 whole entry partner): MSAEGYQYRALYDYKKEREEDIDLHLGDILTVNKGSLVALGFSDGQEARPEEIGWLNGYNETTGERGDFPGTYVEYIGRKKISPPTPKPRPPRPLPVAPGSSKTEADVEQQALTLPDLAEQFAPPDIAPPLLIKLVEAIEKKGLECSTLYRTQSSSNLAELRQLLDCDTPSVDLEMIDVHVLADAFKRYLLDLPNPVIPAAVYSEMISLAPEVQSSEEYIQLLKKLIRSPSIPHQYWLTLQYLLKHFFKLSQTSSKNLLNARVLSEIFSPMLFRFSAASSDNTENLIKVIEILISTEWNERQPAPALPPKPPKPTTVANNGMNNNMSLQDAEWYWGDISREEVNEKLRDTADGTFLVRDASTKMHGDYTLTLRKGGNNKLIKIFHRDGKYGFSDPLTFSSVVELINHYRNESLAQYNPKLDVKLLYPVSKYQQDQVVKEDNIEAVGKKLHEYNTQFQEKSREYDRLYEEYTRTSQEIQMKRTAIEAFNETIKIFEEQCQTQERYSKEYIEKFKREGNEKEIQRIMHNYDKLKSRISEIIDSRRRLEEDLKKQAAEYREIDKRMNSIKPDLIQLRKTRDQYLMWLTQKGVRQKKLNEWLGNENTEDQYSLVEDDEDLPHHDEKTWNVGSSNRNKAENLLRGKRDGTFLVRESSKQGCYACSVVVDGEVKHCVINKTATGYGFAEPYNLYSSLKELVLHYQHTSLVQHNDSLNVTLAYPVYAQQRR

pKi	Structure (SMILES)
8.87	COCCNc1c(-c2ccccc2)c(C(C)Nc2ncnc(N)c2C#N)nc2ccc(F)cc12 (centres unmarked) [4-Amino-6-(1-(6-fluoro-4-((2-methoxyethyl)amino)-3-phenyl-2-quinolinyl)-ethyl)amino)-5-pyrimidinecarbonitrile]
8.77	CC(Nc1ncnc(N)c1C#N)c1nc2ccc(F)cc2c(CO)c1-c1ccccc1 (centres unmarked) [4-amino-6-(1-(6-fluoro-4-(hydroxymethyl)-3-phenylquinolin-2-yl)ethylamino)pyrimidine-5-carbonitrile]
8.89	CC(Nc1ncnc(N)c1C#N)c1nc2ccc(F)cc2c(S(C)(=O)=O)c1-c1ccccc1 (centres unmarked) [4-amino-6-(1-(6-fluoro-4-(methylsulfonyl)-3-phenylquinolin-2-yl)ethylamino)pyrimidine-5-carbonitrile]
8.93	COc1c(-c2ccccc2)c([C@H](C)Nc2ncnc(N)c2C#N)nc2ccc(F)cc12 [(S)-4-amino-6-(1-(6-fluoro-4-methoxy-3-phenylquinolin-2-yl)ethylamino)pyrimidine-5-carbonitrile]
6.57	COc1c(-c2ccccc2)c([C@@H](C)Nc2ncnc(N)c2C#N)nc2ccc(F)cc12 [(R)-4-amino-6-(1-(6-fluoro-4-methoxy-3-phenylquinolin-2-yl)ethylamino)pyrimidine-5-carbonitrile]
8.62	CSc1c(-c2ccccc2)c(C(C)Nc2ncnc(N)c2C#N)nc2ccc(F)cc12 (centres unmarked) [4-amino-6-((1-(6-fluoro-4-(methylsulfanyl)-3-phenyl-2-quinolinyl)ethyl)amino)-5-pyrimidinecarbonitrile]
9.40	CC(Nc1ncnc(N)c1C#N)c1nc2ccc(F)cc2c(NCCO)c1-c1ccccc1 (centres unmarked) [4-Amino-6-((1-(6-fluoro-4-((2-hydroxyethyl)amino)-3-phenyl-2-quinolinyl)ethyl)amino)-5-pyrimidinecarbonitrile]
9.33	CC(Nc1ncnc(N)c1C#N)c1nc2ccc(F)cc2c(NCCS(C)(=O)=O)c1-c1ccccc1 (centres unmarked) [4-Amino-6-((1-(6-fluoro-4-((2-(methylsulfonyl)ethyl)amino)-3-phenyl-2-quinolinyl)ethyl)amino)-5-pyrimidinecarbonitrile]
9.65	C[C@H](Nc1ncnc(N)c1C#N)c1nc2ccc(F)cc2c(NCCS(C)(=O)=O)c1-c1ccccc1 [4-Amino-6-(((1S)-1-(6-fluoro-4-((2-(methylsulfonyl)ethyl)amino)-3-phenyl-2-quinolinyl)ethyl)amino)-5-pyrimidinecarbonitrile]

Further lines, the molecule ahead of its results:

Structure (SMILES)	pKi
C[C@H](c1nc2ccc(F)cc2cc1-c1ccccn1)n1nc(C#N)c2c(N)ncnc21 [(R)-4-amino-1-(1-(6-fluoro-3-(pyridin-2-yl)quinolin-2-yl)ethyl)-1H-pyrazolo[3,4-d]pyrimidine-3-carbonitrile]	6.49
C[C@@H](Nc1ncnc2[nH]cnc12)c1nc2ccc(F)cc2cc1-c1ccccn1 [(R)—N-(1-(6-fluoro-3-(pyridin-2-yl)quinolin-2-yl)ethyl)-9H-purin-6-amine]	6.66
C[C@H](Nc1ncnc(N)c1C#N)c1nc2ccc(F)cc2cc1-c1cccc(S(C)(=O)=O)n1 [(S)-4-Amino-6-(1-(6-fluoro-3-(6-(methylsulfonyl)pyridin-2-yl)quinolin-2-yl)ethylamino)pyrimidine-5-carbonitrile]	6.89
COc1c(-c2cc(F)cc(F)c2)c([C@H](C)Nc2ncnc(N)c2C#N)nc2ccc(F)cc12 [(S)-4-Amino-6-(1-(3-(3,5-difluorophenyl)-6-fluoro-4-methoxyquinolin-2-yl)-ethylamino)pyrimidine-5-carbonitrile]	7.16
C[C@@H](Nc1ncnc(N)c1C#N)c1nc2ccc(F)cc2c(C#N)c1-c1ccccc1 [2-((1R)-1-((6-Amino-5-cyano-4-pyrimidinyl)amino)ethyl)-6-fluoro-3-phenyl-4-quinolinecarbonitrile]	7.23
C[C@H](Nc1ncnc2[nH]cnc12)c1nc2ccc(F)cc2c(S(C)(=O)=O)c1-c1ccccc1 [(S)—N-(1-(6-fluoro-4-(methylsulfonyl)-3-phenylquinolin-2-yl)ethyl)-9H-purin-6-amine]	8.95
C[C@H](Nc1ncnc(N)c1C#N)c1nc2cccc(Cl)c2cc1-c1ccccn1 [4-Amino-6-(((1S)-1-(5-chloro-3-(2-pyridinyl)-2-quinolinyl)ethyl)amino)-5-pyrimidinecarbonitrile]	9.40
CC(Nc1ncnc2[nH]cnc12)c1nc2cccc(F)c2c(S(C)(=O)=O)c1-c1ccccc1 (centres unmarked) [N-(1-(5-Fluoro-4-(methylsulfonyl)-3-phenylquinolin-2-yl)ethyl)-9H-purin-6-amine]	8.65
C[C@@H](Nc1ncnc(N)c1C#N)c1nc2cccc(F)c2c(S(C)(=O)=O)c1-c1ccccc1 [4-amino-6-(((1R)-1-(5-fluoro-4-(methylsulfonyl)-3-phenyl-2-quinolinyl)ethyl)amino)-5-pyrimidinecarbonitrile]	6.33
N#Cc1c(N)ncnc1NCc1nc2c(F)cccc2cc1-c1ccccc1 [4-Amino-6-((8-fluoro-3-phenylquinolin-2-yl)methylamino)pyrimidine-5-carbonitrile]	7.91
C[C@@H](Nc1ncnc(N)c1C#N)c1nc2cccc(C#N)c2cc1-c1ccccn1 [2-((1R)-1-((6-amino-5-cyano-4-pyrimidinyl)amino)ethyl)-3-(2-pyridinyl)-5-quinolinecarbonitrile]	5.58
CC(Nc1ncnc(N)c1C#N)c1nc2ccc(F)cc2c(N2CCOCC2)c1-c1ccccn1 (centres unmarked) [4-amino-6-(1-(6-fluoro-4-morpholino-3-(pyridin-2-yl)quinolin-2-yl)ethyl-amino)pyrimidine-5-carbonitrile]	8.92
C[C@@H](c1nc2ccc(F)cc2cc1-c1ccccn1)n1nc(C#N)c2c(N)ncnc21 [(S)-4-amino-1-(1-(6-fluoro-3-(pyridin-2-yl)quinolin-2-yl)ethyl)-1H-pyrazolo[3,4-d]pyrimidine-3-carbonitrile]	8.11
CC(Nc1cc(N)ncn1)c1nc2ccc(F)cc2cc1-c1ccccn1 (centres unmarked) [N4-(1-(6-Fluoro-3-(pyridin-2-yl)quinolin-2-yl)ethyl)pyrimidine-4,6-diamine]	5.43
CC(Nc1ncnc(N)c1C#N)c1nc2ccc(F)cc2c(C(=O)O)c1-c1ccccc1 (centres unmarked) [2-(1-(6-Amino-5-cyanopyrimidin-4-ylamino)ethyl)-6-fluoro-3-phenylquinoline-4-carboxylic acid]	7.13
CC(Nc1ncnc(N)c1C#N)c1nc2ccc(F)cc2c(C(=O)N2CCCC2)c1-c1ccccc1 (centres unmarked) [4-Amino-6-((1-(6-fluoro-3-phenyl-4-(1-pyrrolidinylcarbonyl)-2-quinolinyl)-ethyl)amino)-5-pyrimidinecarbonitrile]	8.15
C[C@H](Nc1ncnc(N)c1C#N)c1nc2ccc(F)cc2c(C(=O)N2CC[C@H](O)C2)c1-c1ccccc1 [4-amino-6-(((1S)-1-(6-fluoro-4-(((3S)-3-hydroxy-1-pyrrolidinyl)carbonyl)-3-phenyl-2-quinolinyl)ethyl)amino)-5-pyrimidinecarbonitrile]	9.18
CC(Nc1ncnc(N)c1C#N)c1nc2ccc(F)cc2c(N2CC(O)C2)c1-c1ccccn1 (centres unmarked) [4-Amino-6-(1-(6-fluoro-4-(3-hydroxyazetidin-1-yl)-3-(pyridin-2-yl)quinolin-2-yl)ethylamino)pyrimidine-5-carbonitrile]	8.75
C[C@H](Nc1ncnc(N)c1C#N)c1nc2cccc(F)c2c(S(C)(=O)=O)c1-c1ccccc1 [(S)-4-Amino-6-(1-(5-fluoro-4-(methylsulfonyl)-3-phenylquinolin-2-yl)ethylamino)pyrimidine-5-carbonitrile]	8.89
C[C@@H](Nc1ccnc(N)n1)c1nc2ccc(F)cc2cc1-c1ccccn1 [N~4~-((1R)-1-(6-fluoro-3-(2-pyridinyl)-2-quinolinyl)ethyl)-2,4-pyrimidinediamine]	5.26

Reference: patent US9873704B2, “Heterocyclic compounds and their uses” (Amgen Inc., priority 2009, dated 2018)
